Assay results published in the supplement of paper PMC9386025.

Columns and labels:
Assay in all cases: drug sensitivity score (DSS) (DSS (dimensionless)); higher = more sensitive (stronger drug response)
FIMM-PDC6 = patient-derived ovarian cancer cells; details: genetic perturbation: none (patient-derived cell culture)
Method in brief: (§1)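 Ovarian cancer cell lines, with shRNA induced by 100 ng/ml doxycycline for at least three days, and patient-derived cultures were seeded at 1 000 – 1 500 cells per well in 384-well plates holding drugs pre-plated in five concentrations over a 10,000-fold range. After three days at 37 °C and 5.0 % CO2, viability was read as CellTiter-Glo luminescence on a PHERAstar FS. Each drug's dose-response curve was summarised as a drug sensitivity score calculated as previously described.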

FIMM-PDC1 = patient-derived ovarian cancer cells; details: genetic perturbation: none (patient-derived cell culture)
Method in brief: as §1

OVSAHO = system: OVSAHO
Method in brief: as §1

FIMM-PDC7 = patient-derived ovarian cancer cells; details: genetic perturbation: none (patient-derived cell culture)
Method in brief: as §1

Kuramochi = system: Kuramochi
Method in brief: as §1

FIMM-PDC5 = patient-derived ovarian cancer cells; details: genetic perturbation: none (patient-derived cell culture)
Method in brief: as §1

JHOS2 = system: JHOS2
Method in brief: as §1

FIMM-PDC3 = patient-derived ovarian cancer cells; details: genetic perturbation: none (patient-derived cell culture)
Method in brief: as §1

FIMM-PDC4 = patient-derived ovarian cancer cells; details: genetic perturbation: none (patient-derived cell culture)
Method in brief: as §1

[1] = genetic perturbation: DOX-induced PTK7 shRNA knockdown
[2] = genetic perturbation: DOX-induced control shRNA

| SMILES | drug sensitivity score (FIMM-PDC6) | drug sensitivity score (FIMM-PDC1) | drug sensitivity score (OVSAHO; [1]) | drug sensitivity score (OVSAHO; [2]) | drug sensitivity score (FIMM-PDC7) | drug sensitivity score (Kuramochi; [1]) | drug sensitivity score (Kuramochi; [2]) | drug sensitivity score (FIMM-PDC5) | drug sensitivity score (JHOS2; [1]) | drug sensitivity score (JHOS2; [2]) | drug sensitivity score (FIMM-PDC3) | drug sensitivity score (FIMM-PDC4) |
| --- | --- | --- | --- | --- | --- | --- | --- | --- | --- | --- | --- | --- |
| CC(C)[C@H]1C(=O)N[C@@H](CCCNC(=N)N)C(=O)NCC(=O)N[C@@H](CC(=O)O)C(=O)N[C@H](Cc2ccccc2)C(=O)N1C [Cilengitide] | < 0 | 0.75 | 9.6 | 6.1 | 1.3 | 8.65 | 3 | < 0 | 5 | 0.9 | < 0 | < 0 |
| COC[C@H](NC(=O)c1cnc(C)s1)C(=O)N[C@@H](COC)C(=O)N[C@@H](Cc1ccccc1)C(=O)[C@@]1(C)CO1 [Oprozomib] | 24.9 | 19.5 | 17.3 | 10.2 | 19 | 12.6 | 18.3 | 11.6 | 23.6 | 17 | 23.6 | 15.9 |
| Nc1nc(Cl)nc2c1ncn2[C@@H]1O[C@H](CO)[C@@H](O)[C@@H]1F [Clofarabine] | 3.2 | 3.15 | 2.5 | 3.4 | 3.2 | < 0 | < 0 | 13.6 | 15.1 | 10.3 | 6.1 | 7.4 |
| CN(C)C/C=C/C(=O)Nc1cc2c(Nc3ccc(F)c(Cl)c3)ncnc2cc1O[C@H]1CCOC1 [Afatinib] | 15.8 | 4.1 | 1.9 | 1.9 | 13.6 | 1.7 | 1.5 | 21.9 | < 0 | 1.8 | 11 | 15.9 |
| CC(C)(C)c1cnc(CSc2cnc(NC(=O)C3CCNCC3)s2)o1 [SNS-032] | 19.2 | 18.6 | 17.5 | 15.9 | 19.1 | 16.9 | 17.2 | 24.7 | 19.9 | 16.9 | 16.9 | 20 |
| Cc1cc(-c2nc(-c3ccc(OC(F)(F)F)cc3)no2)nn1Cc1ccnc(N2CCN(C3CC3)CC2)c1 [BAY 87-2243] | 8.3 | < 0 | < 0 | 3.5 | < 0 | 5.7 | < 0 | < 0 | 1.3 | < 0 | 0.9 | 1.5 |
| Cc1ncc(-c2ccnc(Nc3ccc(S(C)(=O)=O)cc3)n2)n1C(C)C [AZD-5438] | 9.3 | 7.9 | 8.2 | 7 | 7.6 | 7.55 | 7.8 | 12.8 | 14.4 | 8.3 | 7.3 | 9.5 |
| Cc1nn(C)c(COc2ccc(N3CCN(S(=O)(=O)N(C)C)CC3)cc2)c1-c1cccc2c(CCCOc3cccc4ccccc34)c(C(=O)O)n(CCN3CCOCC3)c12 | 4.6 | 5.7 | 10.1 | 4.9 | 6.5 | 6.25 | 5.8 | 4.9 | 7.3 | 3.4 | 8.8 | 7.2 |
| CO[C@@H](C(=O)N1Cc2[nH]nc(NC(=O)c3ccc(N4CCN(C)CC4)cc3)c2C1)c1ccccc1 [Danusertib] | 9.4 | 7.7 | 17.5 | 7.5 | 1.8 | 10.4 | 13 | 9.6 | 6.6 | 5.5 | 9.9 | 11.6 |
| Cc1c2oc3c(C)ccc(C(=O)N[C@@H]4C(=O)N[C@H](C(C)C)C(=O)N5CCC[C@H]5C(=O)N(C)CC(=O)N(C)[C@@H](C(C)C)C(=O)O[C@@H]4C)c3nc-2c(C(=O)N[C@@H]2C(=O)N[C@H](C(C)C)C(=O)N3CCC[C@H]3C(=O)N(C)CC(=O)N(C)[C@@H](C(C)C)C(=O)O[C@@H]2C)c(N)c1=O [Dactinomycin] | 22.1 | 23.6 | 23.1 | 18 | 26 | 23.3 | 19.9 | 25.2 | 21.1 | 23.4 | 26.5 | 23.1 |
| CC(C)Oc1ccc(C(=O)N[C@H](CNC(=O)CN(C)C)Cc2ccc(-c3cn4cccc([C@H](C)O)c4n3)cc2)cc1Cl | 0.2 | 12.7 | 7.7 | 9.5 | 4.2 | 15.1 | 2.5 | 14.9 | 8.9 | 6.4 | 11.9 | 6 |
| CC1(C)CC[C@]2(NC(=O)C(C)(F)F)CC[C@]3(C)[C@H](C(=O)C=C4[C@@]5(C)C=C(C#N)C(=O)C(C)(C)[C@@H]5CC[C@]43C)[C@@H]2C1 [Omaveloxolone] | 14.3 | 13.5 | 19.8 | 11.9 | 15.8 | 12.2 | 14.1 | 11.3 | 10.1 | 16.2 | 19.3 | 9.9 |
| FC(F)c1nc2ccccc2n1-c1nc(N2CCOCC2)nc(N2CCOCC2)n1 [ZSTK474] | 11.8 | 8.5 | 13.5 | 14 | 15.7 | 13.8 | 7.5 | 17.4 | 6.6 | 8.1 | 10 | 13.9 |
| CC[C@]1(O)C[C@@H]2CN(CCc3c([nH]c4ccccc34)[C@@](C(=O)OC)(c3cc4c(cc3OC)N(C)[C@H]3[C@@](O)(C(=O)OC)[C@H](OC(C)=O)[C@]5(CC)C=CCN6CC[C@]43[C@@H]65)C2)C1 [Vinblastine] | 0.7 | 15.3 | 2 | 9 | 8.9 | 2.8 | 3.9 | 8.2 | 3.7 | 9.7 | 13 | 7.6 |
| C=CC(=O)Nc1cc2c(Nc3ccc(F)c(Cl)c3)ncnc2cc1OCCCN1CCOCC1 [Canertinib] | 20.8 | 7.4 | 8.2 | 7.6 | 12.1 | 8.9 | 8.6 | 27.5 | 8.1 | 7.4 | 15.7 | 20.4 |
| COc1cccc(OCCCN)c1-c1cc(Nc2cnc(C#N)cn2)n[nH]1 [Prexasertib] | 15.4 | 22.6 | 17.4 | 11.1 | 14.3 | 22.4 | 8.8 | 24.3 | 23.3 | 7.3 | 27.1 | 19.2 |

| SMILES | drug sensitivity score (FIMM-PDC6) | drug sensitivity score (FIMM-PDC1) | drug sensitivity score (OVSAHO; [1]) | drug sensitivity score (OVSAHO; [2]) | drug sensitivity score (FIMM-PDC7) | drug sensitivity score (Kuramochi; [1]) | drug sensitivity score (Kuramochi; [2]) | drug sensitivity score (FIMM-PDC5) | drug sensitivity score (JHOS2; [1]) | drug sensitivity score (JHOS2; [2]) | drug sensitivity score (FIMM-PDC3) | drug sensitivity score (FIMM-PDC4) |
| --- | --- | --- | --- | --- | --- | --- | --- | --- | --- | --- | --- | --- |
| C#Cc1cccc(Nc2ncnc3cc(OCCOC)c(OCCOC)cc23)c1 [Erlotinib] | 12.1 | 3.3 | 15.1 | 2.4 | 10 | 1.5 | 3 | 17.2 | 1.2 | 3.5 | 11.3 | 12 |
| O=C1CN2Cc3c(ccc(Cl)c3Cl)N=C2N1 [Anagrelide] | 3.5 | < 0 | < 0 | < 0 | 12 | < 0 | < 0 | < 0 | < 0 | 3.5 | 2.5 | 0.8 |
| CCOC(=O)CCNc1cc(N2CCc3ccccc3CC2)nc(-c2ccccn2)n1 [GSK-J4] | < 0 | 0.2 | < 0 | 11.7 | 0.3 | 5.3 | 7.4 | < 0 | 0.7 | 2.2 | < 0 | < 0 |
| COC(=O)c1ccc2c(c1)NC(=O)/C2=C(\Nc1ccc(N(C)C(=O)CN2CCN(C)CC2)cc1)c1ccccc1 [Nintedanib] | 1.9 | 0.25 | 9.4 | 1.5 | 1.2 | 7.2 | 2.7 | 9.9 | 4 | 4.4 | 2.5 | 8.5 |
| Nc1ccn([C@@H]2O[C@H](CO)[C@@H](O)C2(F)F)c(=O)n1 [Gemcitabine] | 14.2 | 5.15 | 6.1 | 4 | 13.3 | < 0 | 0.8 | 21.8 | 19.5 | 7.1 | 9.4 | 9.8 |
| Cc1sc2c(c1C)C(c1ccc(Cl)cc1)=N[C@@H](CC(=O)Nc1ccc(OCCOCCOCCOCCNc3cccc4c3C(=O)N(C3CCC(=O)NC3=O)C4=O)cc1)c1nnc(C)n1-2 (some centres not stated) [ARV-825] | 6.7 | 0.6 | 9.7 | 9.1 | 8.7 | 8.3 | 10.5 | 8.9 | 10.2 | 8.1 | 3.2 | 8.2 |
| CO[C@H]1C[C@@H]2CC[C@@H](C)[C@@](O)(O2)C(=O)C(=O)N2CCCC[C@H]2C(=O)O[C@H]([C@H](C)C[C@@H]2CC[C@@H](OP(C)(C)=O)[C@H](OC)C2)CC(=O)[C@H](C)/C=C(\C)[C@@H](O)[C@@H](OC)C(=O)[C@H](C)C[C@H](C)/C=C/C=C/C=C/1C [Ridaforolimus] | 3.2 | 1.65 | 0.4 | 5.3 | 11.4 | 2.5 | 0.7 | 9.5 | < 0 | 4.1 | 4.5 | 5 |
| O=C(c1cc(Cc2n[nH]c(=O)c3ccccc23)ccc1F)N1CCN(C(=O)C2CC2)CC1 [Olaparib] | 9.2 | 3.45 | 3.5 | 2.5 | 6.1 | 3.35 | 2.6 | 6.1 | 6.6 | 3.2 | 1.5 | 3.8 |
| CCCCCCCCc1ccc(CCC(N)(CO)CO)cc1 [Fingolimod] | 5.7 | 5.8 | 6.4 | 6.1 | 7 | 7.4 | 5 | 8.3 | 7.1 | 5.3 | 5.8 | 7.2 |
| CCCCc1nc2cc(/C=C/C(=O)NO)ccc2n1CCN(CC)CC [Pracinostat] | 13.7 | 10.8 | 14.2 | 11.2 | 11.1 | 18 | 7.9 | 14.8 | 13.4 | 11.9 | 13.2 | 7.3 |
| CCn1c(=O)c(-c2ccc(Cl)cc2Cl)cc2cnc(Nc3ccc(N4CCNCC4)c(F)c3)nc21 [FRAX486] | 9.7 | 4.5 | 10.8 | 4.8 | 6.5 | 3.7 | 7.6 | 14.7 | 4.5 | 8 | 6.5 | 9.3 |
| CCc1cnn2c(NCc3ccc[n+]([O-])c3)cc(N3CCCC[C@H]3CCO)nc12 [Dinaciclib] | 22.5 | 20.8 | 24.8 | 16.4 | 22.4 | 18.5 | 15.9 | 24.6 | 17.4 | 19.6 | 17.5 | 20.3 |
| Cc1nc(=O)c2cc(CN(C)c3ccc(C(=O)N[C@@H](CCC(=O)O)C(=O)O)s3)ccc2[nH]1 [Raltitrexed] | 1.2 | 2.7 | < 0 | 5.1 | 3 | 0.45 | 9.4 | < 0 | 0.1 | < 0 | < 0 | < 0 |
| Nc1nc2cc(-c3ccc4ncc(C(=O)N5CCOCC5)n4c3)ccc2o1 [Serabelisib] | 3.1 | 0.6 | 0.8 | < 0 | 9.1 | < 0 | < 0 | 5.2 | 0.9 | 0.2 | 0.6 | 4.1 |
| N.N.[Cl][Pt][Cl] [Cisplatin] | 9.8 | 4.8 | 17.6 | 5.1 | 4.7 | 14.2 | 7 | 5.4 | 14.9 | 4.1 | 18.9 | 5.7 |
